The values that follow come from US8431523B2, “Oligomeric biosurfactants in dermatocosmetic compositions” (priority 2006, dated 2013).

Non-standard residues stand in square brackets, D forms with d. Residues, ends and D or L forms follow the SMILES beside them. *: point of attachment. Palmitoyl = CCCCCCCCCCCCCCCC(=O)*; Myristoyl = CCCCCCCCCCCCCC(=O)* Where only a bound is given, the exact number is not on record here.

The subject of experiment [1] is E. coli, P. aeruginosa, P. cepacia, S. aureus, including MRSA, S. epidermidis, and C. albicans. Type of experiment: cell-based. An excerpt: By “antimicrobial” activity is meant the ability to inhibit the growth of at least one microbial organism selected from the group consisting E. coli, P. aeruginosa, S. aureus and C. albicans, as confirmed by optical density measurement (“OD”).
By “inhibition of growth” is meant reduction or absence of an increase greater than 5% in OD, a dimensionless measure of turbidity that is proportional to the amount of microbial cells present in a sample. For illustrative purposes, a OAB according to the present invention is added to a culture plate on which E. coli is present at a final concentration of about 5×10^3 cfu/ml. The plate is then incubated at about 37° C. for about 24 hours at which time the E. coli is resuspended by shaking, and OD is measured at about 600 nm. Thus, a reduction or absence of an increase greater than 5% in OD confirms the antimicrobial nature of the OAB with respect to E. coli.
Minimum inhibitory concentration (“MIC”) is a method well-known to those of skill in the art for expressing antimicrobial activity. A compound to be tested is serially diluted into growth medium, inoculated with culture and then incubated. The MIC is the lowest dilution of compound that inhibits or prevents growth of the target microorganism.
A further aspect of the present invention is directed to oligomeric acylated biosurfactants having a CMC of less than about 100 ppm in an aqueous environment of MEM Solution that reduces the surface tension of the MEM Solution to less than about […] where the OAB consists essentially of two to nine amino acid residues, at least one of which is charged, and has a MIC of less than 100 ppm for at least two of the following microorganisms: E. coli, P. aeruginosa, P. cepacia, S. aureus, including MRSA, S. epidermidis, and C. albicans. OABs meeting this criterion are selected from the group consisting of: Myr-GR-amide (P300); Myr-KK-amide (P315); Pal-HR-amide (P320); Myr-KK-acid (P347); SEQ ID NO 79 (P367); Myr-GHR-amide (P245); Pal-GHR-amide (P250); Myr-GRK-amide (P303); Pal-G-H—[R]^D-amide (P366); SEQ ID NO 84 (368); SEQ ID NO 58 (P370); SEQ ID NO 59 (P360); SEQ ID NO 60 (P373); SEQ ID NO 61 (P376); SEQ ID NO 62 (P369); SEQ ID NO 63 (P379); SEQ ID NO 64 (P381); SEQ ID NO 65 (P416); SEQ ID NO 66 (P383); and SEQ ID NO 67 (P289).

A further experiment deals with fibroblast proliferation. Nature of the experiment: Cyquant Cell Proliferation Assay. It counts as cell-based. Here is the method: For purposes of the present invention, proliferation is assessed using the Cyquant® Cell Proliferation Assay from Molecular Probes. This assay measures increased production of cellular nucleic acids that, in turn, results in increased binding of fluorescent dye.

The next experiment concerns P. cepacia. The experiment is described as follows: Minimum inhibitory concentration, P. cepacia. Type of experiment: cell-based, Pseudomonas cepacia. The source says: By “antimicrobial” activity is meant the ability to inhibit the growth of at least one microbial organism selected from the group consisting E. coli, P. aeruginosa, S. aureus and C. albicans, as confirmed by optical density measurement (“OD”). By “inhibition of growth” is meant reduction or absence of an increase greater than 5% in OD, a dimensionless measure of turbidity that is proportional to the amount of microbial cells present in a sample. For illustrative purposes, a OAB according to the present invention is added to a culture plate on which E. coli is present at a final concentration of about 5×10^3 cfu/ml. The plate is then incubated at about 37° C. for about 24 hours at which time the E. coli is resuspended by shaking, and OD is measured at about 600 nm. Thus, a reduction or absence of an increase greater than 5% in OD confirms the antimicrobial nature of the OAB with respect to E. coli. Minimum inhibitory concentration (“MIC”) is a method well-known to those of skill in the art for expressing antimicrobial activity. A compound to be tested is serially diluted into growth medium, inoculated with culture and then incubated. The MIC is the lowest dilution of compound that inhibits or prevents growth of the target microorganism.

Regarding `CCCCCCCCCCCCCC(=O)NCC(=O)N[C@@H](Cc1c[nH]cn1)C(=O)N[C@@H](CCCNC(=N)N)C(N)=O` [P245, Myr-GHR-amide] (Myristoyl-Gly-His-Arg-NH2), the “MIC for at least two of the listed microorganisms” value (shortened to “MIC for at least two”) in experiment [1] is given as “less than 100 ppm”.
On the same count and under the same terms, next, `CCCCCCCCCCCCCCCC(=O)NCC(=O)N[C@@H](Cc1c[nH]cn1)C(=O)N[C@@H](CCCNC(=N)N)C(N)=O` [P250, Pal-GHR-amide] (Palmitoyl-Gly-His-Arg-NH2): “less than 100 ppm”.
For `CCCCCCCCCCCCCC(=O)N[C@@H](CC(C)C)C(=O)N[C@@H](CCCCN)C(=O)N[C@@H](C)C(=O)N[C@@H](CCCCN)C(N)=O` [P289, Myr-LKAK-amide] (Myristoyl-LKAK-NH2), in experiment [1], the “MIC for at least two” value is listed as “less than 100 ppm”.
The same measure, in the same setting: to `CCCCCCCCCCCCCC(=O)NCC(=O)N[C@@H](CCCNC(=N)N)C(N)=O` [P300, Myr-GR-amide] (Myristoyl-Gly-Arg-NH2) belongs “less than 100 ppm”.
As to `CCCCCCCCCCCCCC(=O)NCC(=O)N[C@@H](CCCNC(=N)N)C(=O)N[C@@H](CCCCN)C(N)=O` [P303, Myr-GRK-amide] (Myristoyl-Gly-Arg-Lys-NH2), in experiment [1], the “MIC for at least two” value was “less than 100 ppm”.
Still for that read-out and setting: next, `CCCCCCCCCCCCCC(=O)N[C@@H](CCCCN)C(=O)N[C@@H](CCCCN)C(N)=O` [P315, Myr-KK-amide]: “less than 100 ppm”.
As for `CCCCCCCCCCCCCCCC(=O)N[C@@H](Cc1c[nH]cn1)C(=O)N[C@@H](CCCNC(=N)N)C(N)=O` [P320, Pal-HR-amide] (Palmitoyl-His-Arg-NH2), the “MIC for at least two” value in experiment [1] is on record as “less than 100 ppm”.
In the case of `CCCCCCCCCCCCCC(=O)N[C@@H](CCCCN)C(=O)N[C@@H](CCCCN)C(=O)O` [P347, Myr-KK-acid], the “MIC for at least two” value in experiment [1] was “less than 100 ppm”.
The same measure, in the same setting: next, `CCCCCCCCCCCCCC(=O)N[C@H](CCCCN)C(=O)N[C@@H](CCCCN)C(=O)N[C@H](C)C(=O)N[C@@H](CC(C)C)C(=O)N[C@H](CCCCN)C(N)=O` [P360, Myr-[K]^D-K-[A]^D-L-[K]^D-amide] (Myristoyl-[dK]K[dA]L[dK]-NH2): “less than 100 ppm”.
Regarding `CCCCCCCCCCCCCC(=O)N[C@@H](CCCCN)C(=O)N[C@@H](CCCCN)C(=O)N[C@@H](C)C(=O)N[C@@H](CC(C)C)C(=O)O` [P362, Myr-KKAL-acid] (Myristoyl-KKAL-OH), the “increase fibroblast proliferation (qualitative)” value in the experiment on fibroblast proliferation is “increase fibroblast proliferation”. Further, in the experiment on P. cepacia, the “MIC(P. cepacia)” value is at most 100 ppm.
The matching figures for `CCCCCCCCCCCCCC(=O)N[C@@H](CC(C)C)C(=O)N[C@@H](C)C(=O)N[C@@H](CCCCN)C(=O)N[C@@H](CCCCN)C(=O)O` [P363, Myr-LAKK-acid] (Myristoyl-LAKK-OH): “increase fibroblast proliferation” and at most 100 ppm.
The matching figures for `CCCCCCCCCCCCCC(=O)N[C@H](C(=O)N[C@@H](C)C(=O)N[C@@H](CCCCN)C(=O)N[C@@H](CCCCN)C(N)=O)[C@@H](C)CC` [P371, Myr-IAKK-amide] (Myristoyl-IAKK-NH2): “increase fibroblast proliferation” and at most 100 ppm.
`CCCCCCCCCCCCCC(=O)N[C@@H](CC(C)C)C(=O)N[C@@H](CO)C(=O)N[C@@H](CCCCN)C(=O)N[C@@H](CCCCN)C(N)=O` [P372, Myr-LSKK-amide] (Myristoyl-LSKK-NH2): the “increase fibroblast proliferation (qualitative)” value with fibroblast proliferation was “increase fibroblast proliferation”. In addition, the “MIC(P. cepacia)” value in the experiment on P. cepacia is reported as at most 100 ppm.
`CCCCCCCCCCCCCC(=O)N[C@@H](CCCCN)C(=O)N[C@@H](CCCCN)C(=O)NCC(=O)N[C@@H](CC(C)C)C(=O)N[C@@H](CCCCN)C(N)=O` [P374, Myr-KKGLK-amide] (Myristoyl-KKGLK-NH2): the “increase fibroblast proliferation (qualitative)” value with fibroblast proliferation was “increase fibroblast proliferation”. Also, in the experiment with P. cepacia, the “MIC(P. cepacia)” value is on record as at most 100 ppm.
The matching figures for `CCCCCCCCCCCCCC(=O)N[C@@H](CCCCN)C(=O)N[C@@H](CCCCN)C(=O)NCC(=O)N[C@H](C(=O)N[C@H](CCCCN)C(N)=O)[C@@H](C)CC` [P390, Myr-KKG1-[K]^D-amide] (Myristoyl-KKGI[dK]-NH2): “increase fibroblast proliferation” and at most 100 ppm.
For the compound `CCCCCCCCCCCCCC(=O)N[C@@H](CCCCN)C(=O)N[C@@H](CCCCN)C(=O)NCC(=O)N[C@@H](CC(C)C)C(=O)N[C@H](CCCCN)C(N)=O` [P394, Myr-KKGL-[K]^D-amide] (Myristoyl-KKGL[dK]-NH2), the “increase fibroblast proliferation (qualitative)” value with fibroblast proliferation is listed as “increase fibroblast proliferation”. Moreover, the “MIC(P. cepacia)” value in the experiment on P. cepacia is listed as at most 100 ppm.
On the same counts, the results for `CCCCCCCCCCCCCC(=O)N[C@@H](CCCCN)C(=O)N[C@@H](CCCCN)C(=O)N[C@@H](CO)C(=O)N[C@@H](CC(C)C)C(=O)N[C@H](CCCCN)C(N)=O` [P395, Myr-KKSL-[K]^D-amide] (Myristoyl-KKSL[dK]-NH2) are “increase fibroblast proliferation” and at most 100 ppm.
On to `CCCCCCCCCCCCCC(=O)N[C@@H](CCCCN)C(=O)N[C@@H](CC(C)C)C(=O)N[C@@H](C)C(=O)N[C@@H](CCCCN)C(=O)N[C@@H](CCCCN)C(=O)N[C@H](CC(C)C)C(N)=O` [P396, Myr-KLAKK-[L]^D-amide] (Myristoyl-KLAKK[dL]-NH2), for which, in the experiment with fibroblast proliferation, the “increase fibroblast proliferation (qualitative)” value is “increase fibroblast proliferation”. For the same compound, the “MIC(P. cepacia)” value against P. cepacia is given as at most 100 ppm.
In the case of `CCCCCCCCCCCCCC(=O)NCC(=O)NCC(=O)N[C@@H](CCCCN)C(=O)N[C@@H](CCCNC(=N)N)C(N)=O` [P399, Myr-GGKR-amide] (Myristoyl-GGKR-NH2), in the experiment on fibroblast proliferation, the “increase fibroblast proliferation (qualitative)” value is “increase fibroblast proliferation”. Moreover, the “MIC(P. cepacia)” value with P. cepacia is at most 100 ppm.
Regarding `CCCCCCCCCCCCCC(=O)N[C@@H](C)C(=O)N[C@@H](C)C(=O)N[C@@H](CCCCN)C(=O)N[C@@H](CCCNC(=N)N)C(N)=O` [P400, Myr-AAKR-amide] (Myristoyl-AAKR-NH2), the “increase fibroblast proliferation (qualitative)” value in the experiment with fibroblast proliferation is on record as “increase fibroblast proliferation”. In addition, the “MIC(P. cepacia)” value in the experiment with P. cepacia was at most 100 ppm.
On the same counts, the results for `CCCCCCCCCCCCCC(=O)N[C@@H](C)C(=O)N[C@@H](CCCCN)C(=O)N[C@@H](CCCCN)C(=O)NCC(=O)N[C@@H](CC(C)C)C(=O)N[C@H](CCCCN)C(N)=O` [P402, Myr-AKKGL-[K]^D-amide] (Myristoyl-AKKGL[dK]-NH2) are “increase fibroblast proliferation” and at most 100 ppm.
On the same counts, the results for `CCCCCCCCCCCCCC(=O)NCC(=O)N[C@@H](CCCCN)C(=O)N[C@@H](CCCCN)C(=O)N[C@@H](C)C(=O)N[C@@H](CC(C)C)C(=O)N[C@H](CCCCN)C(N)=O` [P404, Myr-GKKAL-[K]^D-amide] (Myristoyl-GKKAL[dK]-NH2) are “increase fibroblast proliferation” and at most 100 ppm.
In the case of `CCCCCCCCCCCCCC(=O)N[C@@H](CO)C(=O)N[C@@H](CCCCN)C(=O)N[C@@H](CCCCN)C(=O)N[C@@H](C)C(=O)N[C@@H](CC(C)C)C(=O)N[C@H](CCCCN)C(N)=O` [P408, Myr-SKKAL-[K]^D-amide] (Myristoyl-SKKAL[dK]-NH2), the “increase fibroblast proliferation (qualitative)” value with fibroblast proliferation is listed as “increase fibroblast proliferation”. Moreover, the “MIC(P. cepacia)” value in the experiment with P. cepacia is at most 100 ppm.
